The source of these data is ChEMBL document CHEMBL1201862, “PubChem BioAssay data set” (2004).

Test systems include ACHN; HCC 2998; HT-29; KM12; M14; MOLT-4; NCI-H226; OVCAR-3; OVCAR-5; RXF 393; SF-539; SK-MEL-2; SK-MEL-5; SNB-75; SW-620; U-251; A549.
Holding throughout (assay): NCI anticancer screen, dose series, 48 h

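Growth conditions: 96-well plates. Treatment: test compound, 48 hours, 5 concentrations. Analysis: linear interpolation between bracketing concentrations; unreached endpoints set to highest concentration. The concentration for 50% growth inhibition is given as GI50.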 Active and inactive are the calls of the source. Cut-off read from the data, not from the text of the source: active = GI50 up to about 1.1 µM and inactive = higher.

`COC1(OC)c2ccccc2C2(O)c3ccccc3C(=O)C12` (stereo not given): the GI50 in the experiment with ACHN is 34.1 µM (inactive); in the experiment on HCC 2998 it was 57.1 µM (inactive); in the experiment with HT-29, 55.5 µM (inactive); with KM12 it was 39.9 µM (inactive); in the experiment with M14 it was 23.9 µM (inactive); in the experiment with MOLT-4, 10.9 µM (inactive). Besides, the GI50 in the experiment with NCI-H226 was 27 µM (inactive); in the experiment on OVCAR-3, 28.8 µM (inactive); in the experiment on OVCAR-5, > 100 µM (inactive); in the experiment with RXF 393, > 100 µM (inactive); with SF-539, 61 µM (inactive); in the experiment on SK-MEL-2, 38.1 µM (inactive). The GI50 in the experiment on SK-MEL-5 was 9.16 µM (inactive); with SNB-75 it was 29.3 µM (inactive); with SW-620 it was 71 µM (inactive); in the experiment on U-251, 43 µM (inactive).

With `CC1=NN2C(c3ccc(C)cc3)=CSC2=NC(C)(C)C1`, the GI50 with A549, in the experiment on ACHN, in the experiment on HCC 2998, in the experiment with HT-29, with KM12 and in the experiment on M14 was > 100 µM (inactive) in each case. Moreover, the GI50 with MOLT-4, in the experiment on NCI-H226, with OVCAR-3, with OVCAR-5, with RXF 393 and with SF-539 was > 100 µM (inactive) in each case. Further, the GI50 in the experiment on SK-MEL-2, in the experiment with SK-MEL-5, with SNB-75, in the experiment with SW-620 and in the experiment with U-251 was > 100 µM (inactive) in each case.

For `CSC(=S)N/N=C/c1nccc2ccccc12`, the GI50 in the experiment on A549 is 1.65 µM (inactive); in the experiment on ACHN, 1.23 µM (inactive); in the experiment with HCC 2998, 1.3 µM (inactive); in the experiment with HT-29, 0.701 µM (active); with KM12 it was 2.68 µM (inactive); in the experiment with M14, 1.36 µM (inactive). Further, the GI50 in the experiment with MOLT-4 is 0.204 µM (active); in the experiment on NCI-H226, 1.69 µM (inactive); with OVCAR-5 it was 2.74 µM (inactive); in the experiment with RXF 393 it was 0.721 µM (active); in the experiment with SF-539, 1.08 µM (active); in the experiment with SK-MEL-2 it was 1.07 µM (active). Moreover, the GI50 is 1.08 µM (active) with SK-MEL-5, 0.522 µM (active) with SNB-75, 0.631 µM (active) in the experiment on SW-620 and 0.875 µM (active) in the experiment on U-251.

On to `CC(NC(=O)C(=O)N/N=C1\C[C@@H](c2ccccc2)Nc2ccccc21)c1ccccc1` (stereo not given in full), for which the GI50 in the experiment with A549 was > 100 µM (inactive); in the experiment with ACHN it was 36.1 µM (inactive); with HCC 2998, > 100 µM (inactive); in the experiment with HT-29 it was 80.7 µM (inactive); in the experiment with KM12, > 100 µM (inactive); with M14, > 100 µM (inactive). Moreover, the GI50 with NCI-H226 is 10.4 µM (inactive); in the experiment on OVCAR-3 it was > 100 µM (inactive); in the experiment on OVCAR-5, > 100 µM (inactive); with RXF 393 it was 53.7 µM (inactive); in the experiment on SF-539 it was > 100 µM (inactive); in the experiment on SK-MEL-2, 53 µM (inactive). The GI50 in the experiment on SNB-75 is 10.7 µM (inactive); in the experiment with SW-620 it was > 100 µM (inactive); with U-251, > 100 µM (inactive).

As for `CC(=O)NNc1nc(C)c(C(/C=C/c2ccc(Cl)cc2)=N/NC(=O)C[N+](C)(C)C)s1`, the GI50 with A549, in the experiment with ACHN, in the experiment on HCC 2998, in the experiment on HT-29, in the experiment on KM12 and in the experiment on M14 was > 100 µM (inactive) throughout. Besides, the GI50 in the experiment with MOLT-4, with NCI-H226, with OVCAR-3, in the experiment with OVCAR-5, in the experiment with RXF 393 and in the experiment with SF-539 was > 100 µM (inactive) in each case. Besides, the GI50 in the experiment with SK-MEL-2, in the experiment on SK-MEL-5, in the experiment on SNB-75 and in the experiment with SW-620 was > 100 µM (inactive) throughout.

Regarding `Cc1ccc(Nc2nc(C)c(C(/C=C/c3ccc4c(c3)OCO4)=N/Nc3ccc([N+](=O)[O-])cc3[N+](=O)[O-])s2)c([N+](=O)[O-])c1`, the GI50 is 45.8 µM (inactive) with A549; 21.5 µM (inactive) in the experiment with ACHN; 28.6 µM (inactive) in the experiment on HCC 2998; 50.6 µM (inactive) in the experiment on HT-29; 24 µM (inactive) with KM12; 61.7 µM (inactive) in the experiment on M14. The GI50 was 21.7 µM (inactive) in the experiment with MOLT-4; 25 µM (inactive) with NCI-H226; 35.2 µM (inactive) with OVCAR-3; 43.9 µM (inactive) in the experiment on OVCAR-5; 38 µM (inactive) with RXF 393; 36.3 µM (inactive) with SF-539. For the same molecule, the GI50 is 28 µM (inactive) with SK-MEL-2, 56.8 µM (inactive) in the experiment on SNB-75, 45 µM (inactive) in the experiment with SW-620 and 49.2 µM (inactive) in the experiment with U-251.

In the case of `CCCCCCCCCCCCC/C=C1\C[C@H](O)COC1=O`, the GI50 in the experiment with A549 was 19.5 µM (inactive); in the experiment on ACHN it was 15.9 µM (inactive); in the experiment with HCC 2998 it was 20.9 µM (inactive); in the experiment with HT-29 it was 15.7 µM (inactive); in the experiment with KM12 it was 16.3 µM (inactive); in the experiment with M14, 15 µM (inactive). Moreover, the GI50 is 16.3 µM (inactive) in the experiment with NCI-H226; 17.5 µM (inactive) in the experiment on OVCAR-3; 19.2 µM (inactive) with OVCAR-5; 20 µM (inactive) with RXF 393; 19.8 µM (inactive) with SF-539; 16.6 µM (inactive) with SK-MEL-2. Moreover, the GI50 in the experiment on SK-MEL-5 was 13.7 µM (inactive); with SNB-75 it was 15.9 µM (inactive); in the experiment with SW-620 it was 15.4 µM (inactive); in the experiment with U-251, 17.7 µM (inactive).

On to `COc1cc(C(C)c2cc3c(cc2OCCNC(=O)COc2cc4c(cc2C(C)c2cc(OC)c(OC)c(OC)c2)OCO4)OCO3)cc(OC)c1OC` (stereo not given), for which the GI50 in the experiment on A549 was > 100 µM (inactive); in the experiment on ACHN, 63.2 µM (inactive); with HCC 2998 it was > 100 µM (inactive); in the experiment with HT-29, > 100 µM (inactive); in the experiment on KM12, > 100 µM (inactive); in the experiment with M14, 85.3 µM (inactive). The GI50 is 7.13 µM (inactive) in the experiment on MOLT-4; > 100 µM (inactive) in the experiment with NCI-H226; 67.3 µM (inactive) in the experiment with OVCAR-3; 6.38 µM (inactive) with OVCAR-5; > 100 µM (inactive) with RXF 393; > 100 µM (inactive) in the experiment with SF-539. Further, the GI50 with SK-MEL-2 is > 100 µM (inactive); with SK-MEL-5, > 100 µM (inactive); with SNB-75, 3.09 µM (inactive); with SW-620 it was > 100 µM (inactive); in the experiment with U-251, > 100 µM (inactive).

For `COc1cc2c(cc1O)C(C)Cc1cc3c(cc1N(C)CC2)OCO3` (stereo not given), the GI50 is 3.94 µM (inactive) in the experiment with A549; 6.85 µM (inactive) with ACHN; 5.27 µM (inactive) in the experiment on HCC 2998; 12.9 µM (inactive) in the experiment with HT-29; 4.15 µM (inactive) in the experiment with KM12; 3.22 µM (inactive) in the experiment with M14. The GI50 was 4.13 µM (inactive) in the experiment with MOLT-4; 6.65 µM (inactive) in the experiment on NCI-H226; 3.03 µM (inactive) with OVCAR-3; 23.1 µM (inactive) with OVCAR-5; 1.77 µM (inactive) with RXF 393; 2.72 µM (inactive) with SF-539. Besides, the GI50 in the experiment on SK-MEL-2 was 4.44 µM (inactive); in the experiment on SK-MEL-5, 2.59 µM (inactive); in the experiment on SNB-75, 2.45 µM (inactive); in the experiment with SW-620, 3.74 µM (inactive); in the experiment on U-251 it was 4.01 µM (inactive).

Take `COC(=O)C1N=CSCC1(C)O` (stereo not given): the GI50 in the experiment on A549, in the experiment on ACHN, in the experiment on HCC 2998, in the experiment with HT-29, in the experiment with KM12 and with M14 was > 100 µM (inactive) in each case. Further, the GI50 with MOLT-4, in the experiment on NCI-H226, in the experiment on OVCAR-3, in the experiment with OVCAR-5, in the experiment with RXF 393 and in the experiment on SF-539 was > 100 µM (inactive) throughout. For the same molecule, the GI50 with SK-MEL-2, in the experiment on SK-MEL-5, in the experiment with SNB-75 and in the experiment with SW-620 was > 100 µM (inactive) throughout.

Regarding `COC(=O)[C@@]1(O)CC(C)C=C1C=O` (stereo not given in full), the GI50 in the experiment with A549 was 24.6 µM (inactive); in the experiment on ACHN it was > 100 µM (inactive); in the experiment with HCC 2998, 66.5 µM (inactive); in the experiment with HT-29 it was 39.4 µM (inactive); with KM12, 67.5 µM (inactive); in the experiment with M14, > 100 µM (inactive). Moreover, the GI50 is 60.8 µM (inactive) in the experiment on MOLT-4; > 100 µM (inactive) in the experiment with NCI-H226; 53.6 µM (inactive) with OVCAR-3; > 100 µM (inactive) in the experiment on OVCAR-5; 15.8 µM (inactive) in the experiment on RXF 393; > 100 µM (inactive) with SF-539. Moreover, the GI50 in the experiment with SK-MEL-2 was > 100 µM (inactive); with SK-MEL-5, > 100 µM (inactive); in the experiment on SNB-75, > 100 µM (inactive); in the experiment with SW-620 it was 40.1 µM (inactive); in the experiment with U-251, 18.2 µM (inactive).

Regarding `CCCCCCCCCCCCCCCCCC(=O)NCC(COP(=O)([O-])OCC[N+](C)(C)C)OC` (stereo not given), the GI50 with A549 was 10.3 µM (inactive); in the experiment on ACHN, 10.8 µM (inactive); in the experiment with HCC 2998 it was 1.05 µM (active); in the experiment on HT-29, 3.45 µM (inactive); in the experiment with KM12, 0.766 µM (active); in the experiment on M14 it was 11.5 µM (inactive). Further, the GI50 in the experiment with MOLT-4 is 1.76 µM (inactive); in the experiment on NCI-H226 it was 3.44 µM (inactive); in the experiment with OVCAR-3, 3.37 µM (inactive); with OVCAR-5, 4.09 µM (inactive); in the experiment on RXF 393 it was 0.652 µM (active); in the experiment on SF-539, 17.6 µM (inactive). Further, the GI50 is 15.2 µM (inactive) in the experiment with SK-MEL-5, 5 µM (inactive) in the experiment on SNB-75, 10.9 µM (inactive) in the experiment with SW-620 and 1.87 µM (inactive) with U-251.
